Experimental data reported in patent US10259844B2, “Endometriosis cell targeting peptide and uses thereof” (Sanford-Burnham Medical Research Institute, priority 2005, dated 2019).
Where no end group is shown, it is not given here. The star is where a group is joined. FITC = O=C1OC2(c3ccc(O)cc3Oc3cc(O)ccc32)c2ccc(NC(=S)*)cc21

Assays:
A431 cells = assay: Fluorescence microscopy of overlay on A431 cells; assay type: cell-based, human
Protocol: (§1) Ishikawa cells and A431 cells were grown on glass coverslips in 3.5 cm tissue culture plates. Each phage clone including z13 was added to these cells, incubated at 4° C. for 15 min, washed with cold PBS, and fixed with 1% paraformaldehyde (PFA) in PBS. Phage was detected using rabbit anti-T7 antibody and FITC-conjugated goat anti-rabbit IgG antibody. After washing three times with PBS, cells were fixed with 1% paraformaldehyde in PBS and inspected under a Zeiss Axioplan fluorescence microscope. Ishikawa cells grown on glass coverslips were incubated in medium containing FITC-z13 peptide (1 μg/ml) at 37° C. for 15 min. After washing with PBS, cells were fixed with 1% PFA in PBS, and inspected under the fluorescence microscope. Qdot-encapsulated and C16-z13 peptide coated liposomes were prepared as described above. Ishikawa cells were incubated with these liposomes at 37° C. for 15 min, washed with PBS, fixed with 1% PFA, and inspected under the fluorescence microscope. Qdot605-conjugated peptide, Qdot-cys-z13, or control peptide, Qdot-cys-m2, was added to the culture at 100 nM and left at 37° C. for 15 min.

Ishikawa cells = assay: Fluorescence microscopy of overlay on Ishikawa cells; assay type: cell-based, human
Protocol: Twenty μl of C16-z13 peptide (10 mM in chloroform:methanol 2:1) was mixed with 20 μl phosphatidylcholine (100 mM in chloroform) and 10 μl cholesterol (100 mM in chloroform) in a round bottom flask and evaporated in a rotary evaporator. The sample was dried in a vacuum, dissolved in 500 μl 0.3M citric acid, and frozen and thawed three times, followed by sonication for 10 min. Five hundred μl of 0.2M Na2CO3 and 20 μl of 1 μM Qdot605 streptavidin was added and heated at 60° C. for 1 hour. After adding 1 ml of 20 mM Hepes buffer, pH7.2, the liposome solution was centrifuged at 90,000 rpm for 30 min at 4° C. and the pellet dissolved in PBS.
as §1

[1] = system: human endometrial tissues grafted onto the peritoneal wall; assay: In vivo targeting in SCID mouse peritoneal endometriosis model; settings: intraperitoneal injection, 30 min
Protocol: For in vivo targeting, Qdot-cys-z13 or Qdot-cys-m2 (200 nmoles in 200 μl PBS/mouse) was injected into the peritoneum of a SCID mouse that had received intraperitoneal grafts of human endometrial tissues. The abdomen of the mouse was massaged gently to distribute injected material to the entire peritoneal cavity. After 30 min, mice were sacrificed, and the endometrial graft and organs facing the peritoneum were isolated. Tissues were washed in PBS, embedded in O. C. T. compound (Sakura Finetechnical, Tokyo, Japan) and cryosections were made. Sections were fixed with cold methanol, covered with Vecta-shield with DAPI (Vector), and inspected with a fluorescence microscope.
Immunohistochemistry for the progesterone receptor (PR) was performed as follows: Frozen mouse tissue sections prepared from Qdot-cys-z13 injected mice, Qdot-cys-m2 injected mice, and control mice without Qdot injection were fixed in cold methanol for 15 min. Tissue sections were blocked with avidin (5 ng/ml) in PBS at room temperature for 15 min, followed by incubation with 10% goat serum containing biotin (5 μg/ml) for 1 hour. The tissue sections were then applied to immunohistochemistry with a diluted (1:100) anti-PR antibody (DAKO, Carpinteria, Calif.) at 4° C. for 20 hours. After washing with PBS, sections were incubated with biotinylated anti-rabbit IgG antibody (Zymed) and by streptavidin conjugated Qdot565. […]

## FITC-z13: synthetic fluorescence-tagged z13 peptide whose amino-terminus was conjugated ({FITC}-VRRADNRPG)
A431 cells
  fluorescence of fluorescent peptide on A431 cells: did not show fluorescence
Ishikawa cells; 1 μg/ml, 37° C. 15 min
  binding of fluorescent peptide to Ishikawa cells: bound

## VRRADNRPG [z13 peptide]
Ishikawa cells; conclusion from FITC, C16 liposome and Qdot conjugates
  binding to Ishikawa cells regardless of modification at the amino terminus: efficiently binds

## Qdot-cys-m2: Qdot605 conjugate of the control peptide cys-m2 CRGMSDTTAL (also: Qdot605 conjugate)
[1]
  fluorescence at the surface epithelia of endometriosis lesions: did not show fluorescence
  fluorescence in other mouse tissues facing the peritoneum: did not show fluorescence
Ishikawa cells; 100 nM, 37° C. 15 min
  fluorescence of Qdot-conjugated peptide on Ishikawa cells: did not show fluorescence signals
